Several values for one entry are separate records, joined by “and”; a condition that tells them apart may be missing. Identical values can stand only once. Toxic doses and inconclusive results are not listed. No stated cut-off is given here; in the data, active means T/C of 150% or more; inactive means T/C below 125%.
Tested on: L1210 leukemia ip in BDF1 mice, survival T/C
Experiment: NCI In Vivo Anticancer Drug Screen. Data for tumor model L1210 Leukemia (intraperitoneal) in B6D2F1 (BDF1) mice
Details: endpoint: mean survival time, higher = longer survival
How it was run: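 Transplantable tumor model; survival measured in treated vs vehicle control mice. Value = treated/control.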

[1] = dose: 50.0 mg/kg/injection, schedule: Q01DX001 (ip), vehicle: saline
[2] = dose: 100.0 mg/kg/injection, schedule: Q01DX001 (ip), vehicle: saline
[3] = dose: 200.0 mg/kg/injection, schedule: Q01DX001 (ip), vehicle: saline
[4] = dose: 100.0 mg/kg/injection, schedule: Q04DX003 (ip), vehicle: Klucel (hydroxypropylcellulose) (HPC)
[5] = dose: 200.0 mg/kg/injection, schedule: Q04DX003 (ip), vehicle: Klucel (hydroxypropylcellulose) (HPC)
[6] = dose: 400.0 mg/kg/injection, schedule: Q04DX003 (ip), vehicle: Klucel (hydroxypropylcellulose) (HPC)
[7] = dose: 400.0 mg/kg/injection, schedule: Q01DX001 (ip), vehicle: saline
[8] = dose: 100.0 mg/kg/injection, schedule: Q01DX009 (ip), vehicle: saline with Tween-80
[9] = dose: 200.0 mg/kg/injection, schedule: Q01DX009 (ip), vehicle: saline with Tween-80
[10] = dose: 400.0 mg/kg/injection, schedule: Q01DX009 (ip), vehicle: saline with Tween-80
[11] = dose: 100.0 mg/kg/injection, schedule: Q04DX002 (ip), vehicle: saline
[12] = dose: 200.0 mg/kg/injection, schedule: Q04DX002 (ip), vehicle: saline
[13] = dose: 100.0 mg/kg/injection, schedule: Q04DX002 (ip), vehicle: Klucel (hydroxypropylcellulose) (HPC)
[14] = dose: 200.0 mg/kg/injection, schedule: Q04DX002 (ip), vehicle: Klucel (hydroxypropylcellulose) (HPC)
[15] = dose: 400.0 mg/kg/injection, schedule: Q04DX002 (ip), vehicle: Klucel (hydroxypropylcellulose) (HPC)

Measured: T/C

CC[CH2][Ge]([CH2]CC)([CH2]CC)[O][Ge]([CH2]CC)([CH2]CC)[CH2]CC
inactive: dose: 50.0 mg/kg/injection, schedule: Q01DX001 (ip), vehicle: carboxymethylcellulose (CMC) 96 % of control | [1] 95 % of control | dose: 100.0 mg/kg/injection, schedule: Q01DX001 (ip), vehicle: carboxymethylcellulose (CMC) 100 % of control | [2] 101 % of control | dose: 200.0 mg/kg/injection, schedule: Q01DX001 (ip), vehicle: carboxymethylcellulose (CMC) 100 % of control | [3] 104 % of control | dose: 400.0 mg/kg/injection, schedule: Q01DX001 (ip), vehicle: carboxymethylcellulose (CMC) 105 % of control

N#CN(Cc1ccccc1)Cc1ccccc1
inactive: dose: 100.0 mg/kg/injection, schedule: Q01DX009 (ip), vehicle: Klucel (hydroxypropylcellulose) (HPC) 100 % of control | [4] 101 % of control | dose: 200.0 mg/kg/injection, schedule: Q01DX009 (ip), vehicle: Klucel (hydroxypropylcellulose) (HPC) 105 % of control | [5] 102 % of control | dose: 400.0 mg/kg/injection, schedule: Q01DX009 (ip), vehicle: Klucel (hydroxypropylcellulose) (HPC) 109 % of control | [6] 95 % of control

CCCCCC(/C=N\NC(=O)CCCC(=O)N/N=C/C(=C/c1ccccc1)CCCCC)=C\c1ccccc1
inactive: [1] 89 % of control | [2] 95 % of control | [3] 97 % of control | [7] 89 % of control

O=CNc1ccc2c3c(cccc13)CC2
inactive: dose: 100.0 mg/kg/injection, schedule: Q01DX001 (ip), vehicle: Klucel (hydroxypropylcellulose) (HPC) 101 % of control | dose: 200.0 mg/kg/injection, schedule: Q01DX001 (ip), vehicle: Klucel (hydroxypropylcellulose) (HPC) 93 % of control | dose: 400.0 mg/kg/injection, schedule: Q01DX001 (ip), vehicle: Klucel (hydroxypropylcellulose) (HPC) 108 % of control

Cc1ccc(-c2nc(N)[nH]c(=O)c2CCCN(c2ccccc2)S(=O)(=O)c2ccc(C)cc2)cc1
inactive: [4] 102 % of control | [5] 101 % of control | [6] 102 % of control

c1ccc([C@H]2CN3CCSC3=N2)cc1
inactive: dose: 0.15 mg/kg/injection, schedule: Q01DX009 (ip), vehicle: saline 94 % of control | dose: 0.31 mg/kg/injection, schedule: Q01DX009 (ip), vehicle: saline 91 % of control | dose: 0.63 mg/kg/injection, schedule: Q01DX009 (ip), vehicle: saline 105 % of control | dose: 1.25 mg/kg/injection, schedule: Q01DX009 (ip), vehicle: saline 96 % of control | dose: 2.5 mg/kg/injection, schedule: Q01DX009 (ip), vehicle: saline 98 % of control | dose: 5.0 mg/kg/injection, schedule: Q01DX009 (ip), vehicle: saline 109 % of control | dose: 10.0 mg/kg/injection, schedule: Q01DX009 (ip), vehicle: saline 93 % of control | dose: 20.0 mg/kg/injection, schedule: Q01DX009 (ip), vehicle: saline 94 % of control

O=C(OCc1ccccc1)c1ccccc1
inactive: [8] 98 % of control | [9] 105 % of control | [10] 93 % of control

CCCCOP(=O)(/C=C(\C#N)C(=O)OCC)OCCCC
inactive: [4] 87 % of control | [5] 103 % of control | [6] 98 % of control

Nc1ccc(CCCC(=O)NCc2cccnc2)cc1
inactive: [8] 105 % of control | [9] 94 % of control | [10] 96 % of control

CCN(C)C(=O)Nc1ccc(N)cc1
inactive: [11] 101 % of control | [12] 104 % of control | dose: 400.0 mg/kg/injection, schedule: Q04DX002 (ip), vehicle: saline 108 % of control

CC(=O)C(C(=N)C#N)C(=O)Nc1ccccc1 (centres undefined)
inactive: dose: 100.0 mg/kg/injection, schedule: Q04DX003 (ip), vehicle: saline with Tween-80 101 % of control | dose: 200.0 mg/kg/injection, schedule: Q04DX003 (ip), vehicle: saline with Tween-80 104 % of control | dose: 400.0 mg/kg/injection, schedule: Q04DX003 (ip), vehicle: saline with Tween-80 101 % of control

O=C1CC2(C(=O)O)CC3CC2C(O1)C3I (centres undefined)
inactive: dose: 100.0 mg/kg/injection, schedule: Q01DX009 (ip), vehicle: carboxymethylcellulose (CMC) 86 % of control | dose: 100.0 mg/kg/injection, schedule: Q04DX003 (ip), vehicle: carboxymethylcellulose (CMC) 105 % of control | dose: 200.0 mg/kg/injection, schedule: Q01DX009 (ip), vehicle: carboxymethylcellulose (CMC) 96 % of control | dose: 200.0 mg/kg/injection, schedule: Q04DX003 (ip), vehicle: carboxymethylcellulose (CMC) 97 % of control | dose: 400.0 mg/kg/injection, schedule: Q01DX009 (ip), vehicle: carboxymethylcellulose (CMC) 94 % of control | dose: 400.0 mg/kg/injection, schedule: Q04DX003 (ip), vehicle: carboxymethylcellulose (CMC) 103 % of control

COC1OCC(O)C(O)C1O (centres undefined)
inactive: [2] 92 % of control | dose: 100.0 mg/kg/injection, schedule: Q04DX003 (ip), vehicle: saline 98 % of control | [3] 95 % of control | dose: 200.0 mg/kg/injection, schedule: Q04DX003 (ip), vehicle: saline 106 % of control | [7] 95 % of control | dose: 400.0 mg/kg/injection, schedule: Q04DX003 (ip), vehicle: saline 101 % of control

Oc1c(CNCCCN2CCCC2)cc(Cl)c2cccnc12
inactive: [11] 97 % of control | [12] 97 % of control

Cc1ccc([N+](=O)[O-])cc1NC(=O)NC(=O)c1ccccc1
inactive: [13] 92 % of control | [14] 95 % of control | [15] 97 % of control

COc1ccc(/C=C2\N=C(c3cc(OC)c(OC)c(OC)c3)OC2=O)cc1
inactive: [13] 95 % of control | [14] 98 % of control | [15] 88 % of control

O=[N+]([O-])c1cc(Cl)cc(Cl)c1O
inactive: dose: 12.5 mg/kg/injection, schedule: Q01DX009 (ip), vehicle: Klucel (hydroxypropylcellulose) (HPC) 91 % of control | dose: 12.5 mg/kg/injection, schedule: Q04DX002 (ip), vehicle: Klucel (hydroxypropylcellulose) (HPC) 90 % of control | dose: 25.0 mg/kg/injection, schedule: Q01DX009 (ip), vehicle: Klucel (hydroxypropylcellulose) (HPC) 94 % of control | dose: 25.0 mg/kg/injection, schedule: Q04DX002 (ip), vehicle: Klucel (hydroxypropylcellulose) (HPC) 97 % of control | dose: 50.0 mg/kg/injection, schedule: Q04DX002 (ip), vehicle: Klucel (hydroxypropylcellulose) (HPC) 94 % of control

CCOC(=O)Sc1ncnc2nc[nH]c12
inactive: dose: 10.0 mg/kg/injection, schedule: Q01DX Z (ip), vehicle: carboxymethylcellulose (CMC) 117 % of control

C=CCCCCCCCCCC
inactive: dose: 50.0 mg/kg/injection, schedule: Q04DX003 (ip), vehicle: Klucel (hydroxypropylcellulose) (HPC) 97 % of control | [2] 98 % of control | [4] 95 % of control | [3] 101 % of control | [5] 97 % of control | [7] 96 % of control

O=[N+]([O-])c1ccccc1N=C=S
inactive: dose: 6.25 mg/kg/injection, schedule: Q01DX009 (ip), vehicle: gum acacia 102 % of control | dose: 12.5 mg/kg/injection, schedule: Q01DX009 (ip), vehicle: gum acacia 98 % of control | dose: 25.0 mg/kg/injection, schedule: Q01DX009 (ip), vehicle: gum acacia 97 % of control and 103 % of control | dose: 25.0 mg/kg/injection, schedule: Q04DX002 (ip), vehicle: gum acacia 98 % of control | dose: 50.0 mg/kg/injection, schedule: Q04DX002 (ip), vehicle: gum acacia 106 % of control | dose: 100.0 mg/kg/injection, schedule: Q04DX002 (ip), vehicle: gum acacia 103 % of control

COc1cc(C2=N/C(=C\c3cc(Br)cc(Br)c3O)C(=O)O2)cc(OC)c1OC
inactive: dose: 25.0 mg/kg/injection, schedule: Q04DX002 (ip), vehicle: saline with Tween-80 97 % of control | dose: 50.0 mg/kg/injection, schedule: Q04DX002 (ip), vehicle: saline with Tween-80 90 % of control | dose: 100.0 mg/kg/injection, schedule: Q04DX002 (ip), vehicle: saline with Tween-80 90 % of control | dose: 200.0 mg/kg/injection, schedule: Q04DX002 (ip), vehicle: saline with Tween-80 95 % of control | dose: 400.0 mg/kg/injection, schedule: Q04DX002 (ip), vehicle: saline with Tween-80 95 % of control

— PubChem BioAssay AID248 (DTP/NCI, 2004)
